{"source": "patent US20230065437A1", "about": "“ACIDIZING OF SUBTERRANEAN FORMATIONS WITH PLACEMENT OF SCALE INHIBITOR” (priority 2021, published 2023)", "key": {"[1]": {"experiment": "Solubility of PMIDA in water and HCl at various temperatures and pressures", "format": "physicochemical", "conditions": "for solubility thermodynamic: aqueous buffer, thermodynamic from solid", "source_text": "In certain embodiments, the organophosphorous compound comprising a phosphonoalkyl moiety is at least partially solubilized in the acid component. As used herein, the term “at least partially solubilized,” and grammatical variants thereof, with reference to the organophosphorous compound comprising a phosphonoalkyl moiety in the acid component refers to dissolution of at least about 2% weight per volume (w/v) of the organophosphorous compound comprising a phosphonoalkyl moiety in the acid component at room temperature. As used herein, the term “room temperature” refers to about 15° C. to about 25° C. The remaining excess organophosphorous compound comprising a phosphonoalkyl moiety may be suspended in the acid component while it is undergoing dynamic fluid flow at room temperature. As temperatures increase (e.g., as the treatment fluid is introduced into a subterranean formation and encounters downhole temperatures), the solubility of the organophosphorous compound comprising a phosphonoalkyl moiety in the acid component may increase. Indeed, the solubility of the organophosphorous compound comprising a phosphonoalkyl moiety increases as a function of acid concentration, and temperature."}, "[2]": {"conditions": "cited from earlier work"}}, "data": [{"smiles": "O=C(O)CN(CC(=O)O)CP(=O)(O)O", "note": "[PMIDA, N-(phosphonomethyl)iminodiacetic acid]", "values": [{"measurement": "solubility thermodynamic", "setting": "[1]; 7.5% HCl, 37.8 °C, Atm., 100° F.", "result": 17.4, "unit": "mg/mL"}, {"measurement": "solubility thermodynamic", "setting": "[1]; 7.5% HCl, 65.6 °C, Atm., 150° F.", "result": 39.7, "unit": "mg/mL"}, {"measurement": "solubility thermodynamic", "setting": "[1]; 10% HCl, 37.8 °C, Atm., 100° F.", "result": 20, "unit": "mg/mL"}, {"measurement": "solubility thermodynamic", "setting": "[1]; 10% HCl, 65.6 °C, Atm., 150° F.", "result": 49.1, "unit": "mg/mL"}, {"measurement": "solubility thermodynamic", "setting": "[1]; 10% HCl, 93.3 °C, Atm., 200° F.", "result": 101, "unit": "mg/mL"}, {"measurement": "solubility thermodynamic", "setting": "[1]; 15% HCl, 37.8 °C, 200 psi, 100° F.", "result": 41.1, "unit": "mg/mL"}, {"measurement": "solubility thermodynamic", "setting": "[1]; 15% HCl, 37.8 °C, Atm., 100° F.", "result": 30.6, "unit": "mg/mL"}, {"measurement": "solubility thermodynamic", "setting": "[1]; 15% HCl, 65.6 °C, 200 psi, 150° F.", "result": 95.7, "unit": "mg/mL"}, {"measurement": "solubility thermodynamic", "setting": "[1]; 15% HCl, 65.6 °C, Atm., 150° F.", "result": 72.2, "unit": "mg/mL"}, {"measurement": "solubility thermodynamic", "setting": "[1]; 15% HCl, 93.3 °C, 200 psi, 200° F.", "result": 203, "unit": "mg/mL"}, {"measurement": "solubility thermodynamic", "setting": "[1]; 15% HCl, 93.3 °C, Atm., 200° F.", "result": 166, "unit": "mg/mL"}, {"measurement": "Solubility Average", "setting": "[1]; Atm., 7.5% HCl, 200° F.", "result": 10.00, "unit": "w/v %"}]}, {"smiles": "O=C([O-])CC(NC(C(=O)[O-])C(O)C(=O)[O-])C(=O)[O-].[Na+].[Na+].[Na+].[Na+]", "note": "(centres unmarked) [HIDS, tetrasodium 3-hydroxy-2,2′-iminodisuccinate]", "values": [{"measurement": "pKa values", "setting": "[2]", "result": "about 2.83"}]}, {"smiles": "O=C(O)CN(CCO)CC(=O)O", "note": "[HEIDA, N-(2-hydroxyethyl)iminodiacetic acid]", "values": [{"measurement": "pKa values", "setting": "[2]", "result": "about 2.2"}]}]}
